Results reported in US6514968B1, “Aminoalkoxy carbazoles for the treatment of cns diseases” (Pharmacia & Upjohn Company, priority 1999, dated 2003).
Counter-ions that a name gives are not always drawn.

What was measured:
[1] = target: T1, cloned human 5-HT6 receptor (Homo sapiens, UniProt P50406); assay: 5-HT6 Receptor Binding Assay; conditions: [3H]-lysergic acid diethylamide (LSD) radioligand, membranes of Hela cells containing the cloned human 5-HT6 receptor, SPA beads; estimated IC50 converted to Ki by Cheng-Prusoff
T1 construct: host or cells: HeLa cells (G-418 selection), membrane preparation
T1 sequence (P50406 whole entry): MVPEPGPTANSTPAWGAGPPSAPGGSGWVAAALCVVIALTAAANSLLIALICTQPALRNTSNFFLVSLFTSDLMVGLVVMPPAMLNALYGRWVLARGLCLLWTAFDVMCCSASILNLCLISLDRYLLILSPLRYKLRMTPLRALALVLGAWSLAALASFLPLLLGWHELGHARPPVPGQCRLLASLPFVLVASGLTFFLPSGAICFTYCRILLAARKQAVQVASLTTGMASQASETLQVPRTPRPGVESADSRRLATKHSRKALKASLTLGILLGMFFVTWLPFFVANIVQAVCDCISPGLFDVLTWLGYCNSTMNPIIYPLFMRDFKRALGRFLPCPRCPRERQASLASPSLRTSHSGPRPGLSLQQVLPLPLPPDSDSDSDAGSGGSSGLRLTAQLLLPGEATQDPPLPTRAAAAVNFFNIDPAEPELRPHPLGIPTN
Procedure: 5-HT6 Receptor Binding Assay
Growth of Cells and Membrane Preparation
Hela cells containing the cloned human 5-HT6 receptor were acquired from Dr. David R. Sibley's laboratory in National Institute of Health (see Sibley, D. R., J. Neurochemistry, 66, 47-56, 1996). Cells were grown in high glucose Dulbecco's modified Eagle's medium, supplemented with L-glutamine, 0.5% sodium pyruvate, 0.3% penicillin-streptomycin, 0.025% G-418 and 5% Gibco fetal bovine serum and then were harvested, when confluent, in cold phosphate-buffered saline.
Harvested intact cells were washed once in cold phosphate-buffered saline. The cells were pelleted and resuspended in 100 ml of cold 50 mM Tris, 5 mM EDTA and 5 mM EGTA, pH 7.4. Homogenization was with a Vir Tishear generator, 4 cycles for 30 seconds each at setting 50. The homogenized cells were centrifuged at 700 RPM (1000×g) for 10 minutes and the supernatant was removed. The pellet was resuspended in 100 ml of the above buffer and rehomogenized for 2 cycles. The rehomogenized cells were then centrifuged at 700 RPM (1000×g) for 10 minutes and the supernatant was removed. The combined supernatant (200ml) was centrifuged at 23,000 RPM (80,000×g) for 1 hour in a Beckman Rotor (42.1 Ti). The membrane pellet was resupended in 50-8-ml of assay buffer containing HEPES 20 mM, MgCl2 10 mM, NaCl 150 mM, EDTA 1 mM, pH 7.4 and stored frozen in aliqouts at −70° C.
The radioligand binding assay used [^3H]-lysergic acid diethylamide (LSD). The assay was carried out in Wallac 96-well sample plates by the addition of 11 μl of the test sample at the appropriate dilution (the assay employed 11 serial concentrations of samples run in duplicate), 11 μl of radioligand, and 178 μl of a washed mixture of WGA-coated SPA beads and membranes in binding buffer. The plates were shaken for about 5 minutes and then incubated at room temperature for 1 hour. The plates were then loaded into counting cassettes and counted in a Wallac MicroBeta Trilux scintillation counter.
Binding Constant (Ki) Determination
Eleven serial dilutions of test compounds were distributed to assay plates using the PE/Cetus Pro/Pette pipetter. These dilutions were, followed by radioligand and the bead-membrane mixture prepared as described above. The specifically bound cpm obtained were fit to a one-site binding model using GraphPad Prism ver. 2.0. Estimated IC50 values were converted to Ki values using the Cheng-Prusoff equation (Cheng, Y. C. et al., Biochem. Pharmacol., 22, 3099-108, 1973).

Structure (SMILES): NCCOc1cccc2c1c1ccccc1n2Cc1csc2ccc(Cl)cc12 (as salt: methane sulfonate) [Example 50, 2-({9-[(5-Chloro-1-benzothiophen-3-yl)methyl]-9H-carbazol-4-yl}oxy)ethylamine]
- melting point: > 256 °C

Structure (SMILES): Cc1nc(Cn2c3ccccc3c3c(OCCN)cccc32)cs1 (as salt: methane sulfonate) [Example 51, 2-({9-[(2-Methyl-1,3-thiazol-4-yl)methyl]-9H-carbazol-4-yl}oxy)ethylamine]
- melting point: 228.5 to 229 °C

Structure (SMILES): CCN(CC)CCOc1cccc2c1c1ccccc1n2Cc1ccccc1 [Example 1, N-{2-[(9-Benzyl-9H-carbazol-4-yl)oxy]ethyl}-N,N-diethylamine]
- Ki [1]: 24 nM
- melting point: 79 to 80.5 °C

Structure (SMILES): CCN(CC)CCOc1cccc2c1c1cccc(Cl)c1n2Cc1ccccc1 [Example 2, N-{2-[(9-Benzyl-8-chloro-9H-carbazol-4-yl)oxy]ethyl}-N,N-diethylamine]
- Ki [1]: 6 nM
- melting point: 73.5 to 75 °C

Structure (SMILES): CCN(CC)CCOc1cccc2c1c1cccc(Cl)c1n2Cc1ccc(F)cc1 [Example 3, N-(2-{[8-Chloro-9-(4-fluorobenzyl)-9H-carbazol-4-yl]oxy}ethyl)-N,N-diethylamine]
- Ki [1]: 22 nM
- melting point: 104.5 to 105.5 °C

Structure (SMILES): CCN(CC)CCOc1cccc2c1c1cccc(F)c1n2Cc1ccccc1 [Example 7, N-{2-[(9-Benzyl-8-fluoro-9H-carbazol-4-yl)oxy]ethyl}-N,N-diethylamine]
- Ki [1]: 2.6 nM
- melting point: 60 to 60.5 °C

Structure (SMILES): O=CNCCOc1cccc2c1c1ccccc1n2Cc1ccccc1 [Example 33, N-{2-[(9-benzyl-9H-carbazol-4-yl)oxy]ethyl}formamide]
- Ki [1]: 211 nM
- melting point: 161 to 162 °C

Structure (SMILES): CNCCOc1cccc2c1c1ccccc1n2Cc1ccccc1.O=C(O)/C=C\C(=O)O [Example 34, N-{2-[(9-Benzyl-9H-carbazol-4-yl)oxy]ethyl}-N-methylamine]
- Ki [1]: 5.7 nM
- melting point: 182.5 to 184.5 °C

Structure (SMILES): COCCNCCOc1cccc2c1c1ccccc1n2Cc1ccccc1.O=C(O)/C=C\C(=O)O [Example 36, N-{2-[(9-Benzyl-9H-carbazol-4-yl)oxy]ethyl}-N-(2-methoxyethyl)amine]
- Ki [1]: 16 nM
- melting point: 175 to 175.5 °C

Structure (SMILES): c1ccc(Cn2c3ccccc3c3c(OCCN4CCCCC4)cccc32)cc1 [Example 39, 9-Benzyl-4-[2-(1-piperidinyl)ethoxy]-9H-carbazole]
- Ki [1]: 12 nM
- melting point: 113.5 to 114.5 °C

Structure (SMILES): NCCOc1cccc2c1c1cccc(F)c1n2Cc1ccccc1 [Example 41, 2-[(9-Benzyl-8-fluoro-9H-carbazol-4-yl)oxy]ethylamine]
- Ki [1]: 2.4 nM
- melting point: 122.25 to 123 °C

Structure (SMILES): CCN(CC)CCOc1cccc2c1c1cccc(F)c1n2Cc1ccc(F)cc1 [Example 42, N,N-Diethyl-N-(2-{[8-fluoro-9-(4-fluorobenzyl)-9H-carbazol-4-yl]oxy}ethyl)amine]
- Ki [1]: 20 nM
- melting point: 59 to 60 °C

Structure (SMILES): CCN(CC)CCOc1cccc2c1c1cc(Cl)ccc1n2Cc1ccccc1 [Example 43, N-{2-[(9-Benzyl-6-chloro-9H-carbazol-4-yl)oxy]ethyl}-N,N-diethylamine]
- Ki [1]: 182 nM
- melting point: 96 to 97.5 °C

Structure (SMILES): CCN(CC)CCOc1cccc2c1c1cc(F)ccc1n2Cc1ccccc1 [Example 44, N-{2-[(9-Benzyl-6-fluoro-9H-carbazol-4-yl)oxy]ethyl}-N,N-diethylamine]
- Ki [1]: 180 nM
- melting point: 68 to 69 °C

Structure (SMILES): Cc1ccc2c(c1)c1c(OCCN)cccc1n2Cc1ccccc1.O=C(O)/C=C\C(=O)O [Example 46, 2-[(9-Benzyl-6-methyl-9H-carbazol-4-yl)oxy]ethylamine]
- Ki [1]: 6.1 nM
- melting point: 187.5 to 188 °C

Structure (SMILES): CNCCOc1cccc2c1c1cc(C)ccc1n2Cc1ccccc1 [Example 47, N-{2-[(9-Benzyl-6-methyl-9H-carbazol-4-yl)oxy]ethyl}-N-methylamine]
- Ki [1]: 2.2 nM
- melting point: 96 to 96.75 °C

Structure (SMILES): O=C(O)/C=C\C(=O)O.OCCNCCOc1cccc2c1c1ccccc1n2Cc1ccccc1 [Example 49, 2-({2-[(9-benzyl-9H-carbazol-4-yl)oxy]ethyl}amino)-1-ethanol]
- Ki [1]: 4.5 nM
- melting point: 160 °C

Structure (SMILES): COc1ccc2c(c1)c1c(OCCN)cccc1n2Cc1ccccc1 [Example 61, 2-[(9-Benzyl-6-methoxy-9H-carbazol-4-yl)oxy]ethylamine]
- Ki [1]: 27 nM

Structure (SMILES): COc1ccc2c3c(OCCN)cccc3n(Cc3ccccc3)c2c1 [Example 62, 2-[(9-Benzyl-7-methoxy-9H-carbazol-4-yl)oxy]ethylamine]
- Ki [1]: 60 nM
